Consider one molecule from US20080119481A1, “Crystalline forms of 6-methoxy-8-[4-(1-(5-fluoro)-quinolin-8-yl-piperidin-4-yl)-piperazin-1-yl]-quinoline” (Wyeth, priority 2006, published 2008).

SMILES strings stand for the structures. Values joined by “and” are separate entries in the source; they are usually repeats but may differ in a detail not shown here. Identical values can stand only once.

With `COc1cc(N2CCN(C3CCN(c4ccc(F)c5cccnc45)CC3)CC2)c2ncccc2c1` (hydrate or solvate) [Form A, 6-methoxy-8-[4-(1-(5-fluoro)-quinolin-8-yl-piperidin-4-yl)-piperazin-1-yl]-quinoline], the melting point is ~ 196 °C and 198 °C.
